Assay results reported in the NIST ThermoML archive (doi:10.1021/je200146j).
± gives the expanded uncertainty stated by the source.

Test: mn = molality of the nth substance listed, in mol/kg
Conditions: 101 kPa, Liquid, m1 = 0.512; for speed of sound: Sing-around technique in a fixed-path interferometer; for mass density: Vibrating tube method

SMILES | speed of sound (298.15 K) | mass density (298.15 K) | speed of sound (303.15 K) | mass density (303.15 K) | speed of sound (308.15 K) | mass density (308.15 K) | speed of sound (313.15 K) | mass density (313.15 K) | speed of sound (318.15 K) | mass density (318.15 K) | speed of sound (323.15 K) | mass density (323.15 K)
O=[N+]([O-])[O-].[K+] [potassium nitrate] + O | 1517.8 ± 4.1 m/s | 1027.98 ± 1 kg/m3 | 1526.8 ± 4.1 m/s | 1026.22 ± 1 kg/m3 | 1536.3 ± 4.1 m/s | 1024.1 ± 1 kg/m3 | 1544.4 ± 4.1 m/s | 1022.05 ± 1 kg/m3 | 1551.1 ± 4.1 m/s | 1020.2 ± 1 kg/m3 | 1556.6 ± 4.1 m/s | 1018.2 ± 1 kg/m3
O=S(=O)([O-])[O-].[K+].[K+] [potassium sulfate] + O | 1563.6 ± 4.1 m/s | 1063.81 ± 1 kg/m3 | 1571.6 ± 4.1 m/s | 1062.02 ± 1 kg/m3 | 1580.3 ± 4.1 m/s | 1060.06 ± 1 kg/m3 | 1587.6 ± 4.1 m/s | 1057.74 ± 1 kg/m3 | 1593.5 ± 4.1 m/s | 1055.14 ± 1 kg/m3 | 1598.3 ± 4.1 m/s | 1052.95 ± 1 kg/m3
